Patent US20230292755A1, “USE OF A GLYCINE BETAINE DERIVATIVE AS A PEDICULICIDAL AGENT” (priority 2020, published 2023)

Test system: lice (Pediculus humanus capitis)
Assay: Efficacy test: aqueous solutions sprayed into boxes of lice, percentage of mortality evaluated (ECHA guidance)
Format: in vivo
Conditions: sprayed aqueous solution at 3% by weight of dry matter; for Mortality rate (%): mean of 4 boxes of 25 lice
Protocol: The surfactant compositions prepared as described in examples 1 and 2 above were tested following the recommendations of the ECHA relating to the evaluation of the efficacy of biocidal products (Guidance on the Biocidal Products Regulation Volume II Efficacy—Assessment and Evaluation (Parts B+C), Version 3.0 April 2018).
These compositions were thus each sprayed, in the form of aqueous solutions at 3% by weight of dry matter, into 4 boxes each including 25 lice (Pediculus humanus capitis), then the percentage of mortality was evaluated after 5, 10 and 15 min. The mean of the results obtained in the 4 boxes was calculated.
The test presented in example 3 was reproduced using one and the same concentration of different cationic surfactants instead of the glycine betaine derivatives according to the invention.

Benzalkonium chloride
Mortality rate (%) (after 5 min): 70%
Mortality rate (%) (after 10 min): 80%
Mortality rate (%) (after 15 min): 82%
time required to eliminate 100% of the lice: 60 min

CCCCCCCCCCCCCCCC[N+](C)(C)C.[Cl-] [Cetrimonium chloride]
Mortality rate (%) (after 5 min): 79%
Mortality rate (%) (after 10 min): 94%
Mortality rate (%) (after 15 min): 100%

CCCCCCCCCCCC[N+](C)(C)C.[Cl-] [Dodecyltrimethylammonium chloride]
Mortality rate (%) (after 5 min): 49%
Mortality rate (%) (after 10 min): 78%
Mortality rate (%) (after 15 min): 91%
time required to eliminate 100% of the lice: 30 min
